Tested on: behaviorally-diagnosed psychiatric conditions (DSM categories)
Design: species or system human
Conditions: in vivo
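Wherever use code of agent in 301.7 Antisocial Personality Disorder is given: N marks novel agent found effective in subject subgroups.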
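Wherever use code of agent in 301.83 Borderline Personality Disorder is given: N marks novel agent found effective in subject subgroups.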
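Wherever use in 307.50 Eating Disorder NOS is given: N marks novel agent found effective in subject subgroups.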
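Wherever use in 307.51 Bulimia Nervosa is given: N marks novel agent found effective in subject subgroups.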

COCCc1ccc(OCC(O)CNC(C)C)cc1 (centres unmarked) [METOPOLOL]
N: use code of agent in 296.89 Bipolar II Disorder | use code of agent in 296.90 Mood Disorder NOS | use code of agent in 301.13 Cyclothymic Disorder | use code of agent in 301.20 Schizoid Personality Disorder | use code of agent in 301.22 Schizotypal Personality Disorder | use code of agent in 301.4 Obsessive-Compulsive Personality Disorder | use code of agent in 301.50 Histrionic Personality Disorder | use code of agent in 301.6 Dependent Personality Disorder | use code of agent in 301.7 Antisocial Personality Disorder | use code of agent in 301.82 Avoidant Personality Disorder | use code of agent in 301.83 Borderline Personality Disorder | use code of agent in 307.42 Primary Insomnia | use code of agent in 311 Depressive Disorder NOS | use code of agent in 312.34 Intermittent Explosive Disorder | use code of agent in 312.39 Trichotillomania | use code of agent in 316 Psychological Factors Affecting Medical Condition, Hypertensive Disorder NOS | use code of agent in 316 Psychological Factors Affecting Medical Condition, Irritable Bowel Syndrome | use code of agent in 316 Psychological Factors Affecting Medical Condition, Neurodermatitis | use code of agent in Bipolar I Disorder | use code of agent in Major Depressive Disorder, Recurrent | use code of agent in Major Depressive Disorder, Single Episode | use in 294.9 Cognitive Disorder NOS | use in 299.00 Autistic Disorder | use in 299.80 Pervasive Developmental Disorder NOS | use in 300.00 Anxiety Disorder NOS | use in 300.02 Generalized Anxiety Disorder | use in 300.22 Agoraphobia Without History of Panic Disorder | use in 300.23 Social Phobia | use in 300.3 Obsessive-Compulsive Disorder | use in 307.1 Anorexia Nervosa | use in 307.20 Tic Disorder NOS | use in 307.22 Chronic Motor or Vocal Tic Disorder | use in 307.23 Tourette's Disorder | use in 307.50 Eating Disorder NOS | use in 307.51 Bulimia Nervosa | use in 309.21 Separation Anxiety Disorder | use in 309.81 Posttraumatic Stress Disorder | use in 312.30 Impulse-Control Disorder NOS | use in 312.31 Pathological Gambling | use in 312.8 Conduct Disorder | use in 313.81 Oppositional Defiant Disorder | use in 315.9 Learning Disorder NOS | use in Attention-Deficit/Hyperactivity Disorder | use in Panic Disorder | use of the agent in the diagnostic category (C = common use; N = novel use from rEEG features)

N[C@@H]1C[C@H]1c1ccccc1 [PARNATE, reference compound]
N: use code of agent in 301.20 Schizoid Personality Disorder | use code of agent in 301.4 Obsessive-Compulsive Personality Disorder | use code of agent in 301.50 Histrionic Personality Disorder | use code of agent in 301.6 Dependent Personality Disorder | use code of agent in 301.7 Antisocial Personality Disorder | use code of agent in 301.82 Avoidant Personality Disorder | use code of agent in 301.83 Borderline Personality Disorder | use code of agent in 302.71 Hypoactive Sexual Desire Disorder | use code of agent in 307.42 Primary Insomnia | use code of agent in 311 Depressive Disorder NOS | use code of agent in 316 Psychological Factors Affecting Medical Condition, Atypical Asthma | use code of agent in 316 Psychological Factors Affecting Medical Condition, Neurodermatitis | use code of agent in Bipolar I Disorder | use code of agent in Major Depressive Disorder, Recurrent | use code of agent in Major Depressive Disorder, Single Episode | use in 294.9 Cognitive Disorder NOS | use in 296.89 Bipolar II Disorder | use in 296.90 Mood Disorder NOS | use in 299.80 Pervasive Developmental Disorder NOS | use in 300.00 Anxiety Disorder NOS | use in 300.02 Generalized Anxiety Disorder | use in 300.22 Agoraphobia Without History of Panic Disorder | use in 300.23 Social Phobia | use in 300.29 Specific Phobia | use in 300.3 Obsessive-Compulsive Disorder | use in 300.4 Dysthymic Disorder | use in 301.13 Cyclothymic Disorder | use in 307.1 Anorexia Nervosa | use in 307.50 Eating Disorder NOS | use in 307.51 Bulimia Nervosa | use in 309.21 Separation Anxiety Disorder | use in 309.81 Posttraumatic Stress Disorder | use in 312.30 Impulse-Control Disorder NOS | use in 312.31 Pathological Gambling | use in 312.34 Intermittent Explosive Disorder | use in 312.39 Trichotillomania | use in 312.8 Conduct Disorder | use in 313.81 Oppositional Defiant Disorder | use in 315.9 Learning Disorder NOS | use in Attention-Deficit/Hyperactivity Disorder | use in Panic Disorder | use of the agent in the diagnostic category (C = common use; N = novel use from rEEG features)

CC(C)(N)Cc1ccccc1 [PHENTERMINE]
N: use code of agent in 294.9 Cognitive Disorder NOS | use code of agent in 300.4 Dysthymic Disorder | use code of agent in 307.50 Eating Disorder NOS | use code of agent in 312.8 Conduct Disorder | use of agent in DSM category (C/N code)

CN[C@@H](C)Cc1ccccc1 [METHAMPHETAMINE]
N: use code of agent in 294.9 Cognitive Disorder NOS | use code of agent in 296.90 Mood Disorder NOS | use code of agent in 300.4 Dysthymic Disorder | use code of agent in 301.13 Cyclothymic Disorder | use code of agent in 307.1 Anorexia Nervosa | use code of agent in 307.51 Bulimia Nervosa | use code of agent in 312.30 Impulse-Control Disorder NOS | use code of agent in 312.31 Pathological Gambling | use code of agent in 312.39 Trichotillomania | use code of agent in 312.8 Conduct Disorder | use code of agent in 313.81 Oppositional Defiant Disorder | use code of agent in 315.9 Learning Disorder NOS

N[C@@H](Cc1ccccc1)C(=O)O [PHENYLALANINE, reference compound]
N: agent found effective in 299.00 Autistic Disorder | agent found effective in 300.00 Anxiety Disorder NOS | agent found effective in 300.02 Generalized Anxiety Disorder | agent found effective in 300.22 Agoraphobia Without History of Panic Disorder | agent found effective in 300.23 Social Phobia | agent found effective in 300.29 Specific Phobia | agent found effective in 300.3 Obsessive-Compulsive Disorder | agent found effective in 309.81 Posttraumatic Stress Disorder | agent found effective in Panic Disorder | use in Dementia of the Alzheimer's Type

CC(NC(C)(C)C)C(=O)c1cccc(Cl)c1 (centres unmarked) [BUPROPRION (LONG ACTING)]
N: use code of agent in 301.20 Schizoid Personality Disorder | use code of agent in 301.22 Schizotypal Personality Disorder | use code of agent in 301.4 Obsessive-Compulsive Personality Disorder | use code of agent in 301.50 Histrionic Personality Disorder | use code of agent in 301.6 Dependent Personality Disorder | use code of agent in 301.7 Antisocial Personality Disorder | use code of agent in 301.82 Avoidant Personality Disorder | use code of agent in 301.83 Borderline Personality Disorder | use code of agent in 302.71 Hypoactive Sexual Desire Disorder | use code of agent in 307.42 Primary Insomnia | use code of agent in 311 Depressive Disorder NOS | use code of agent in 316 Psychological Factors Affecting Medical Condition, Atypical Asthma | use code of agent in 316 Psychological Factors Affecting Medical Condition, Neurodermatitis | use code of agent in Bipolar I Disorder | use in 294.8 Amnestic Disorder | use in 294.9 Cognitive Disorder NOS | use in 296.89 Bipolar II Disorder | use in 299.80 Pervasive Developmental Disorder NOS | use in 300.00 Anxiety Disorder NOS | use in 300.02 Generalized Anxiety Disorder | use in 300.22 Agoraphobia Without History of Panic Disorder | use in 300.23 Social Phobia | use in 300.29 Specific Phobia | use in 300.3 Obsessive-Compulsive Disorder | use in 301.13 Cyclothymic Disorder | use in 307.1 Anorexia Nervosa | use in 307.50 Eating Disorder NOS | use in 307.51 Bulimia Nervosa | use in 307.9 Communication Disorder NOS | use in 309.21 Separation Anxiety Disorder | use in 309.81 Posttraumatic Stress Disorder | use in 312.30 Impulse-Control Disorder NOS | use in 312.31 Pathological Gambling | use in 312.34 Intermittent Explosive Disorder | use in 312.39 Trichotillomania | use in 312.8 Conduct Disorder | use in 313.81 Oppositional Defiant Disorder | use in 315.9 Learning Disorder NOS | use in Attention-Deficit/Hyperactivity Disorder | use in Panic Disorder | use of the agent in the diagnostic category (C = common use; N = novel use from rEEG features)

Reference: US7962204B2 (priority 2001, dated 2011)
